Source: the OligoGym collection
Where “and” joins values, the source holds several entries; their conditions need not be identical. Equal entries are not always repeated. After the bases stand the sugars from the 5' end (letter, count) and the backbone: PS all phosphorothioate, else s phosphorothioate and o phosphodiester by linkage. HELM strings list units from the 5' end as sugar, base in round brackets, then linkage (d deoxyribose, r ribose, m 2'-O-methyl, p phosphodiester). Methylation of C is not given here. [moe] = 2'-O-(2-methoxyethyl) (MOE); [cEt] = constrained ethyl (cEt); [sp] = phosphorothioate linkage; e = 2'-O-(2-methoxyethyl) (MOE); k = constrained ethyl (cEt); d = 2'-deoxy (DNA)

Columns and labels:
IRF5 = conditions: ASO
HBV = conditions: ASO

For “GGTTCTTGGACTCTCA (sugars kkkdddddddddkeke, PS)”, the target mRNA inhibition (IRF5; KARPAS-229, 0.44444 µM) was 41%, the target mRNA inhibition (IRF5; KARPAS-229, 1.33333 µM) was 56% and the target mRNA inhibition (IRF5; KARPAS-229, 4 µM) was 48% and 67%. It also gave a target mRNA inhibition (IRF5; KARPAS-229, 12 µM) of 81%.
For “GTCTAGTGTCATGGAA (sugars kkddddddddkekekk, PS)”, the target mRNA inhibition (IRF5; KARPAS-229, 4 µM) was 9%.
Substance “GTCTGGCCCTTTTGGA (sugars k2 d9 e3 k2, PS)” has a target mRNA inhibition (IRF5; KARPAS-229, 4 µM) of 0%.
Work on “GTCTGGCCCTTTTGGA (sugars k3 d9 k3 e1, PS)” yielded a target mRNA inhibition (IRF5; KARPAS-229, 4 µM) of 0%.
“GTCTGGCCCTTTTGGA (sugars kkdddddddddkdkdk, PS)” showed a target mRNA inhibition (IRF5; KARPAS-229, 4 µM) of 0%.
Work on “GTCTGGCCCTTTTGGA (sugars kkddddddddkekekk, PS)” yielded a target mRNA inhibition (IRF5; KARPAS-229, 4 µM) of 0%.
“GTCTTGACCTCCCGCT (sugars kkdddddddddkdkdk, PS)” gave a target mRNA inhibition (IRF5; KARPAS-229, 4 µM) of 46%.
In the case of “GTCTTGACCTCCCGCT (sugars kkdddddddddkekek, PS)”, the target mRNA inhibition (IRF5; KARPAS-229, 4 µM) is reported as 40%.
With “GTCTTGACCTCCCGCT (sugars kkkddddddddkekek, PS)” the target mRNA inhibition (IRF5; KARPAS-229, 4 µM) was 23%.
For “GTCTTTGAGGTCTGGG (sugars kddddddddddkekek, PS)”, the target mRNA inhibition (IRF5; KARPAS-229, 4 µM) was 0%.
In the case of “GTCTTTGAGGTCTGGG (sugars kdddddddddkekeke, PS)”, the target mRNA inhibition (IRF5; KARPAS-229, 4 µM) is reported as 33%.
“GTGAGTCTCAAACCAG (sugars kekdddddddddeekk, PS)” gave a target mRNA inhibition (IRF5; KARPAS-229, 4 µM) of 22%.
For “GTGAGTCTCAAACCAG (sugars kkkddddddddkdkdk, PS)”, the target mRNA inhibition (IRF5; KARPAS-229, 4 µM) was 0%.
“GTGAGTCTCAAACCAG (sugars kkkddddddddkekek, PS)” gave a target mRNA inhibition (IRF5; KARPAS-229, 4 µM) of 0%.
For “GTGTATTTCCCTGTCT (sugars kkddddddddddkeke, PS)”, the target mRNA inhibition (IRF5; KARPAS-229, 4 µM) was 0%.
With “GTGTATTTCCCTGTCT (sugars kkddddddddkekekk, PS)” the target mRNA inhibition (IRF5; KARPAS-229, 4 µM) was 0%.
For GTTATCTCCGTCCTGG (sugars k3 d10 k3, PS), the target mRNA inhibition (IRF5; KARPAS-229, 4 µM) was 31%.
“GTTCTTGGACTCTCAA (sugars k2 d9 e3 k2, PS)” was tested, and the target mRNA inhibition (IRF5; KARPAS-229, 4 µM) was 22%.
Substance “RNA1{[cEt](A)[sp].[moe](G)[sp].[cEt](C)[sp].d(G)[sp].d(A)[sp].d(A)[sp].d(G)[sp].d(T)[sp].d(G)[sp].d(C)[sp].d(A)[sp].[moe](C)[sp].[moe](A)[sp].[moe](C)[sp].[moe](G)[sp].[moe](G)}$$$$V2.0” has a target mRNA inhibition (HBV; HepG2, 0.009375 µM) of 37%, a target mRNA inhibition (HBV; HepG2, 0.01875 µM) of 39% and a target mRNA inhibition (HBV; HepG2, 0.0375 µM) of 59%. It also gave a target mRNA inhibition (HBV; HepG2, 0.075 µM) of 72%, a target mRNA inhibition (HBV; HepG2, 0.15 µM) of 86% and a target mRNA inhibition (HBV; HepG2, 0.3 µM) of 90%.
Work on “RNA1{[cEt](A)[sp].d(G)[sp].[cEt](G)[sp].d(T)[sp].[cEt](G)[sp].d(A)[sp].d(A)[sp].d(G)[sp].d(C)[sp].d(G)[sp].d(A)[sp].d(A)[sp].d(G)[sp].d(T)[sp].[moe](G)[sp].[moe](C)}$$$$V2.0” yielded a target mRNA inhibition (HBV; HepG2, 0.009375 µM) of 14%, a target mRNA inhibition (HBV; HepG2, 0.01875 µM) of 21% and a target mRNA inhibition (HBV; HepG2, 0.0375 µM) of 42%. The target mRNA inhibition (HBV; HepG2, 0.075 µM) was 61%, the target mRNA inhibition (HBV; HepG2, 0.15 µM) was 80% and the target mRNA inhibition (HBV; HepG2, 0.3 µM) was 92%.
With “RNA1{[moe](A)[sp].[cEt](A)[sp].[cEt](A)[sp].d(T)[sp].d(G)[sp].d(G)[sp].d(C)[sp].d(A)[sp].d(C)[sp].d(T)[sp].d(A)[sp].d(G)[sp].d(T)[sp].[cEt](A)[sp].[cEt](A)[sp].[moe](A)}$$$$V2.0” the target mRNA inhibition (HBV; HepG2, 0.07 µM) was 51%.
“RNA1{[moe](A)[sp].[cEt](A)[sp].[cEt](G)[sp].d(G)[sp].d(C)[sp].d(A)[sp].d(C)[sp].d(A)[sp].d(G)[sp].d(C)[sp].d(T)[sp].d(T)[sp].d(G)[sp].[cEt](G)[sp].[cEt](A)[sp].[moe](G)}$$$$V2.0” was tested, and the target mRNA inhibition (HBV; HepG2, 0.07 µM) was 32% and 15%.
“RNA1{[moe](A)[sp].[cEt](A)[sp].[cEt](G)[sp].d(T)[sp].d(C)[sp].d(C)[sp].d(A)[sp].d(C)[sp].d(C)[sp].d(A)[sp].d(C)[sp].d(G)[sp].d(A)[sp].[cEt](G)[sp].[cEt](T)[sp].[moe](C)}$$$$V2.0” was tested, and the target mRNA inhibition (HBV; HepG2, 0.07 µM) was 59% and 46%.
For “RNA1{[moe](A)[sp].[cEt](C)[sp].[cEt](C)[sp].d(A)[sp].d(C)[sp].d(A)[sp].d(T)[sp].d(C)[sp].d(A)[sp].d(T)[sp].d(C)[sp].d(C)[sp].d(A)[sp].[cEt](T)[sp].[cEt](A)[sp].[moe](T)}$$$$V2.0”, the target mRNA inhibition (HBV; HepG2, 0.07 µM) was 35% and 54%.
With “RNA1{[moe](A)[sp].[cEt](C)[sp].[cEt](C)[sp].d(A)[sp].d(C)[sp].d(T)[sp].d(G)[sp].d(A)[sp].d(A)[sp].d(C)[sp].d(A)[sp].d(A)[sp].d(A)[sp].[cEt](T)[sp].[cEt](G)[sp].[moe](G)}$$$$V2.0” the target mRNA inhibition (HBV; HepG2, 0.07 µM) was 70% and 57%.
Substance TACCCAATGCAACATC (sugars k3 d10 k3, PS) has a target mRNA inhibition (IRF5; KARPAS-229, 4 µM) of 0%.
TAGGACGAGTTATGGG (sugars k3 d10 k3, PS) gave a target mRNA inhibition (IRF5; KARPAS-229, 4 µM) of 25%.
“TATCTCCGTCCTGGCT (sugars kdddddddddkekeke, PS)” gave a target mRNA inhibition (IRF5; KARPAS-229, 4 µM) of 0%.
With “TATCTCCGTCCTGGCT (sugars kkddddddddkekekk, PS)” the target mRNA inhibition (IRF5; KARPAS-229, 4 µM) was 6%.
For “TATTTCTGCTCCAGGT (sugars k2 d8 e4 k2, PS)”, the target mRNA inhibition (IRF5; KARPAS-229, 4 µM) was 43%.
“TATTTCTGCTCCAGGT (sugars kkddddddddddkeke, PS)” was tested, and the target mRNA inhibition (IRF5; KARPAS-229, 0.44444 µM) was 40%, the target mRNA inhibition (IRF5; KARPAS-229, 1.33333 µM) was 53% and the target mRNA inhibition (IRF5; KARPAS-229, 4 µM) was 49% and 71%. It also gave a target mRNA inhibition (IRF5; KARPAS-229, 12 µM) of 79%.
With “TATTTCTGCTCCAGGT (sugars kkdddddddddkdkdk, PS)” the target mRNA inhibition (IRF5; KARPAS-229, 4 µM) was 27%.
“TCACCACTGTGTACCC (sugars k2 d9 e3 k2, PS)” was tested, and the target mRNA inhibition (IRF5; KARPAS-229, 4 µM) was 0%.
Substance TCATGAGTAATAGGAG (sugars k3 d10 k3, PS) has a target mRNA inhibition (IRF5; KARPAS-229, 4 µM) of 11%.
TCATTTGCCTTCTGCA (sugars k3 d10 k3, PS) was tested, and the target mRNA inhibition (IRF5; KARPAS-229, 4 µM) was 6%.
“TCCAATTTTGCATTCC (sugars kkddddddddkekekk, PS)” showed a target mRNA inhibition (IRF5; KARPAS-229, 4 µM) of 15%.
TCTGATATGATACCTA (sugars k3 d10 k3, PS) showed a target mRNA inhibition (IRF5; A-431, 0.00412 µM) of 8%, a target mRNA inhibition (IRF5; A-431, 0.01225 µM) of 27% and a target mRNA inhibition (IRF5; A-431, 0.03704 µM) of 54%. It also gave a target mRNA inhibition (IRF5; A-431, 0.11111 µM) of 78%, a target mRNA inhibition (IRF5; A-431, 0.33333 µM) of 89% and a target mRNA inhibition (IRF5; A-431, 1 µM) of 92%. The target mRNA inhibition (IRF5; KARPAS-229, 0.44444 µM) was 59%, the target mRNA inhibition (IRF5; KARPAS-229, 1.33333 µM) was 68% and the target mRNA inhibition (IRF5; KARPAS-229, 4 µM) was 63% and 78%. It also gave a target mRNA inhibition (IRF5; KARPAS-229, 12 µM) of 83%.
